{"source": "patent US10065951B2", "about": "“Small molecule transcription modulators of bromodomains” (Icahn School of Medicine at Mount Sinai, priority 2014, dated 2018)", "key": {"[1]": {"tested_on": "MOG-induced EAE", "assay": "MOG-induced EAE in mice, treatment from day 4 after immunization", "assay_type": "in vivo, mouse", "protocol": "FIG. 12A illustrates a score graph of clinical severity of EAE in mice injected with MOG as described herein. Each group was composed of 6-9 mice. Below the score, the graphs show the levels of myelin transcripts detected at the times denoted by asterisks in the score graph. 12B provides transcript levels detected in the spinal cord of mice harvested at the same time points as the asterisks in 12A.\nAn in vivo mouse model study was conducted to determine how treatment with 4c would modulate oligodendrocyte progenitor differentiation and impact repair after demyelination. In a first series of experiments, a model of immune-mediated demyelination was used. EAE was induced by subcutaneous injection of 300 μg of MOG35-55 peptide thoroughly emulsified in complete Freund's adjuvant containing heat-inactivated Mycobacterium tuberculosis in the mouse flank on day 0 and 7. Pertussis toxin (500 ng) was intraperitoneally injected on day 0 and 2. After immunization mice were observed and weighed daily and scored for severity of symptoms as follows: 0, no detectable symptoms; 1, loss of tail tone; 2, hindlimb weakness or abnormal gait; 3, complete paralysis of the hindlimbs; 4, complete hindlimb and forelimb paralysis; 5, death. A minimum of 6-9 animals received daily intraperitoneal injections of 4c, starting from day 4 after immunization with the MOG peptide (FIG. 12A) and weight and clinical score were recorded daily. Disease onset was similar in mice treated with 4c compared to DMSO-injected controls."}, "[2]": {"tested_on": "MOG-induced EAE", "assay": "MOG-induced EAE in mice, 7-day treatment started after onset of clinical symptoms", "assay_type": "in vivo, mouse", "conditions": "treatment from day 18 for 7 days, mice with score 2.5-3.0; after 3-4 days of treatment", "protocol": "FIG. 14 illustrates seven-day 4c treatment accelerates recovery from MOG-induced EAE even if started AFTER the onset of clinical symptoms.\nThis study was conducted to determine whether the effectiveness of 4c can be observed in animals even if started once the disease has progressed to peak clinical symptoms. For this reason, MOG-dependent EAE in mice was induced and the animals scored daily. On day 18 post-immunization mice with a score of 2.5-3.0 (paralysis of one leg and weakness of the other to paralysis of both hindlimbs) were selected and divided into two groups receiving either 4c or vehicle treatment for 7 days."}, "[3]": {"tested_on": "cuprizone-induced demyelination", "assay": "Cuprizone model of demyelination in old mice", "assay_type": "in vivo, mouse", "conditions": "injection starting during the 3rd week", "protocol": "Effect of treatment with 2.4 μg/Kg 4c (olinone; red bars) and DMSO (black bars) treatment on the expression of progenitor (i.e. NG2), astrocytic (i.e. GFAP) and oligodendrocyte (i.e. MBP, MOG, PLP) genes.\nFIG. 16 illustrates enhanced remyelination in 4c-treated mice. […] Cuprizone damages myelin and this can be best seen as a decreased in the staining intensity. The effect on repair is shown by the darker intensity of the myelinated fibers.\nA similar experiment was repeated in the cuprizone model of demyelination (FIG. 15). This model, characterized by precocious loss of myelin gene transcripts and oligodendrocyte apoptosis, followed by a repair phase characterized by expansion of the progenitor pool followed by differentiation has been previously described (Matsushima, G. K., and Morell, P. (2001). Brain Pathol 11:107-116). It was shown that in young mice the repair phase starts at week 3 and is characterized by the HDAC-dependent phase of differentiation of endogenous progenitors (Shen, S., Sandoval, J., Swiss, V. A., Li, J., Dupree, J., Franklin, R. J., and Casaccia-Bonnefil, P. (2008) Nat Neurosci 11:1024-1034) old mice repair was impaired, due to unopposed HAT activity, resulting in high levels of transcriptional inhibitors of oligodendrocyte differentiation and low myelin gene transcripts."}, "[4]": {"tested_on": "CBP occupancy at promoters (Lmnb1 transcription start site)", "assay": "Chromatin immunoprecipitation (ChIP) of CBP and H3K18ac at gene promoters", "assay_type": "cell-based", "conditions": "10 nM, one day", "protocol": "FIG. 9 illustrates the ChIP analysis of samples isolated from cells cultured as previously described and then precipitated using antibodies specific for CBP, and for H3K18ac. A mock ChIP (No Antibody) was used as negative control. The amount of chromatin recovered at the Lmnb1 transcription start site was measured by qPCR and expressed as percentage of input for each sample. Error bars are s.e.m. of three independent experiments (*p<0.05, **p<0.01 two-tail t test).\nOligodendrocyte progenitors (4×10^6) were crosslinked in 1% formaldehyde, lysed in nuclear lysis buffer (50 mM Tris-HCL (pH 8.0), 10 mM EDTA, 1% SDS, Protease Inhibitors (Roche) and PMSF) and sonicated using a Bioruptor (Diagenode) sonicator to produce chromatin with an average length of 500 base pairs. Chromatin was aliquoted and immunopreciptiated using protein A magnetic beads (Dynabeads-Invitrogen 100.01D) coated with 2 μg of antibodies to CBP (santa cruz sc-369), H3-K9ac (abcam ab4441), H3-K9ac and K14 (millipore 06-599), H3-K18ac (abcam ab1191). A mock immunopreciptitation was set-up as a control (No antibody). Immunoprecipitations were carried out overnight. […]\nQuantitative PCR was performed using primers to detect the transcriptional start site of the Lmnb1 promoter; forward 5′-[…] […]"}, "[5]": {"conditions": "0.24 μg/kg (10 nM), daily intraperitoneal from day 4"}, "[6]": {"conditions": "2.4 μg/kg (100 nM), daily intraperitoneal from day 4"}}, "data": [{"smiles": "CC(=O)NCCCCn1c2c(c3ccccc31)C(=O)NCC2", "note": "[4c, 2,3,4,5-tetrahydro-5-(4′-acetamidobutyl)-1H-pyrido-[4,3-b]indol-1-one]", "values": [{"measurement": "Average score", "setting": "[1]; [5]", "value": 2.25}, {"measurement": "Maximum score", "setting": "[1]; [5]", "value": 2.5}, {"measurement": "Number of animals with clinical signs", "setting": "[1]; [5]", "value": "4 out of 7"}, {"measurement": "Number of mice with score <0.5", "setting": "[1]; [5]", "value": "1/4"}, {"measurement": "recovery period compared to vehicle controls", "setting": "[1]; 2.4 μg/Kg", "value": "dramatically accelerated"}, {"measurement": "myelin gene transcripts in spinal cord during recovery", "setting": "[1]; 2.4 μg/Kg, similar levels of cytokines", "value": "significant increase of myelin gene transcripts"}, {"measurement": "Average score", "setting": "[1]; [6]", "value": 2.25}, {"measurement": "Number of animals with clinical signs", "setting": "[1]; [6]", "value": "5 out of 7"}, {"measurement": "Number of mice with score <0.5", "setting": "[1]; [6]", "value": "4/5"}, {"measurement": "disease onset compared to DMSO-injected controls", "setting": "[1]; daily intraperitoneal from day 4", "value": "similar"}, {"measurement": "disease severity at day 18", "setting": "[1]; day 18, vs vehicle-injected controls", "value": "less severe disease"}, {"measurement": "recovery when treatment started at peak clinical symptoms", "setting": "[2]", "value": "showed signs of recovery"}, {"measurement": "formation of new myelin (eryochrome cyanine staining)", "setting": "[3]", "value": "favors the formation of new myelin"}, {"measurement": "myelin gene transcripts", "setting": "[3]; 2.4 μg/Kg", "value": "increased myelin gene transcripts"}, {"measurement": "acetylation of histone H3 at lysine 18 (H3K18ac) at promoters", "setting": "[4]", "value": "but not the acetylation of histone H3 at lysine 18 (H3K18ac) was decreased"}, {"measurement": "association of CBP with promoters", "setting": "[4]", "value": "decreased"}]}]}
